Values joined by “and” are separate entries in the source; they are usually repeats but may differ in a detail not shown here. Equal values may be shown once. Read-outs that look alike come from different tables or passages of the source.
Assays:
[1] = tested on: tail flick antinociception; details: cited from earlier work
[2] = tested on: antinociceptive action of nicotine; details: in vivo; cited from earlier work
[3] = tested on: α4β2 type nicotinic receptors; details: binds more tightly; cited from earlier work
[4] = tested on: post-incisional pain, injured hind paw; details: for Meas (von Frey response): IP, individual measurements
[5] = nicotine nasal spray 3 mg, PCA morphine
[6] = Description: (§1) This study was a randomized, double blind clinical trial with a 24 hour data collection period. The study was approved by the institutional review board at Columbia University. Written informed consent was obtained from all patients. Women between the ages of 18 and 50, scheduled to have uterine surgery (either myomectomy or hysterectomy) through a low transverse incision were eligible to be included. We chose to only study women in this preliminary study because animal studies have identified gender differences in nicotine's analgesic action 10-12. Patients were excluded who had smoked during the past year, had preexisting pain syndromes, hypertension, or any history of cardiovascular disease. All patients were American Society of Anesthesiologists class 1 or 2. The patients were instructed before surgery that they would be asked about their pain with a numerical analog score where 0 is no pain and 10 is the worst pain that they could imagine. […] No other medications were given in the preoperative period.
All patients were given a standardized anesthetic as follows: anesthetic premedication was administered in the operating room consisting of 1-2 μg/kg fentanyl and 1 mg vecuronium. Anesthesia was induced with propofol 2 mg/kg and succinylcholine 2 mg/kg. After intubation of the trachea, anesthesia was maintained with a fentanyl infusion of 1-2 μg/kg/hr and isoflurane titrated to adequate anesthetic depth by the clinical anesthesiologist, who was not aware of the treatment group. Muscle relaxation was effected with vecuronium. All patients were given dolasetron 12.5 mg prophylactically to prevent nausea and vomiting. At the completion of surgery, the anesthesiologist was given an opaque sealed container with either a nicotine nasal spray (3 mg—Nicotrol NS, Pharmacia, Peapack, N.J.) or saline nasal spray prepared according to a random number table by the research pharmacy. The study drug was administered by the anesthesiologist as 3 jets in each nostril (3 mg nicotine or an equal volume of saline) at a 45 degree angle after the muscle relaxant was reversed and while the surgeon was closing the fascia. […]
In previous studies using analog pain scores the standard deviation was approximately 2 numerical analog pain units. We calculated that in order to detect a difference of 2 numerical analog pain units, with α=0.05 and 80% power we would need to enroll 17 patients per group (StatMate, GraphPad software, San Diego, Calif., USA). […] The change in pain scores over time was determined with a One Way Analysis of Variance for repeated measures, where time was considered a continuous variable (Analyse-it for Microsoft Excel; Analyse-it Software, ltd., Leeds, England). […]

TNF-α, IL2 and IL6 = details: anticipated; nicotine 0-5 mg/kg after surgical incision
postoperative pain = tested on: postoperative pain
Description: as §1
(§2) All patients were given a standardized anesthetic as follows: anesthetic premedication was administered in the operating room consisting of 1-2 μg/kg fentanyl and 1 mg vecuronium. Anesthesia was induced with propofol 2 mg/kg and succinylcholine 2 mg/kg. After intubation of the trachea, anesthesia was maintained with a fentanyl infusion of 1-2 μg/kg/hr and isoflurane titrated to adequate anesthetic depth by the clinical anesthesiologist, who was not aware of the treatment group. Muscle relaxation was effected with vecuronium. All patients were given dolasetron 12.5 mg prophylactically to prevent nausea and vomiting. At the completion of surgery, the anesthesiologist was given an opaque sealed container with either a nicotine nasal spray (3 mg—Nicotrol NS, Pharmacia, Peapack, N.J.) or saline nasal spray prepared according to a random number table by the research pharmacy. The study drug was administered by the anesthesiologist as 3 jets in each nostril (3 mg nicotine or an equal volume of saline) at a 45 degree angle after the muscle relaxant was reversed and while the surgeon was closing the fascia.
Five minutes after extubation and every 5 minutes thereafter for 60 minutes, the patient was asked to report the pain that they were experiencing with a numerical analog score from 0-10. A pain report was also obtained at 2 and 24 hours. A PCA pump was inserted into the patient's intravenous circuit prior to emergence from anesthesia. […] No other postoperative analgesic medications were used.
The data were analyzed per protocol. Two subjects from whom informed consent was obtained were not studied for postoperative pain. In one case because of a protocol violation in the standard anesthetic the patient was not randomized and in the second case, the anesthesiologist was not certain of study drug dose. The decision to exclude these patients was made prior to the postoperative period and this no data was obtained.
(§3) In previous studies using analog pain scores the standard deviation was approximately 2 numerical analog pain units. We calculated that in order to detect a difference of 2 numerical analog pain units, with α=0.05 and 80% power we would need to enroll 17 patients per group (StatMate, GraphPad software, San Diego, Calif., USA). 10 patients were enrolled per group as a pilot study requested by our IRB. […] The change in pain scores over time was determined with a One Way Analysis of Variance for repeated measures, where time was considered a continuous variable (Analyse-it for Microsoft Excel; Analyse-it Software, ltd., Leeds, England). All values are reported as mean (SD).

post-incisional pain = tested on: post-incisional pain
Description: Each of these studies will be nearly identical to the original study (FIG. 5). However, the studies will look at the following dosing paradigms: • 1. Animals will be randomized to receive nicotine 0.25 to 1.5 mg/kg, or placebo 2 hours prior to the hind-paw surgery, or 2 hours after the hind paw surgery (reproducing the original study). […] The doses will be determined in a dose-finding portion of the interaction study. The interaction surface will be modeled and tested to identify any benefit from preoperative administration of nicotine. • 2. […] The study will help to document whether there is any benefit to maintaining nicotine with a constant infusion vs. a simple bolus injection. Expected Results and Potential Issues

[7] = 3 mg intranasally, non-smoking volunteers; cited from earlier work
[8] = cited from earlier work
[9] = remark: listed apart in the source
Description: as §2
Blood pressure was measured with a non-invasive automatic oscillometric blood pressure cuff every 5 minutes for the first hour (Agilent Technologies, Andover, Mass.). Heart rate was monitored continuously with a pulse oximeter and electrocardiographic leads and recorded every five minutes for the first hour (Agilent Technologies, Andover, Mass.). All testing was conducted by the same investigator (D.D.). Both the investigator recording data and the nurse administering medication were blinded to treatment group.
as §3

[10] = 3 mg intranasally (Guthrie, 1999)

In the case of CCN1C[C@]2(COC(=O)c3ccccc3N3C(=O)C[C@H](C)C3=O)CC[C@H](OC)[C@@]34[C@@H]5C[C@H]6[C@H](OC)[C@@H]5[C@](O)(C[C@@H]6OC)[C@](O)([C@@H](OC)[C@H]23)[C@@H]14 [MLA], the “effect on the antinociceptive response to nicotine” value ([1]; tail flick assay) is given as “no effect”.
For C[N+](C)(C)CCCCCC[N+](C)(C)C [hexamethonium], the “effect on the antinociceptive action of nicotine” value [2] is given as “no effect”.
For CNCC/C=C/c1cccnc1 [metanicotine], the “antinociception in the tail flick assay” value ([1]; dose of 10 mg/kg) is given as “midrange antinociception” and the “binding selectivity for α4β2 over α3β4, α7 or muscle type nicotinic receptors” value [3] is given as “over 10,000 times”.
With CN1CC[C@]23c4c5ccc(O)c4O[C@H]2[C@@H](O)C=C[C@H]3[C@H]1C5 [morphine] the antinociceptive efficacy alone ([4]; 129J strain relatively insensitive to morphine) was “relatively ineffective alone”, the “Meas (von Frey response)” value ([4]; Morphine 0.1 mg/kg, Nicotine 0) was 1.8 gms (2×) and 0.75 gms (2×) and 2.95 gms and the “Meas (von Frey response)” value ([4]; Morphine 1 mg/kg, Nicotine 0) was 1.95 gms (3×) and 1.7 gms and 0.9 gms and 5.2 gms (2×) and 5.95 gms and 0.75 gms and 2.95 gms. The “Meas (von Frey response)” value ([4]; Morphine 5 mg/kg, Nicotine 0) was 0.9 gms (3×) and 1.1 gms (2×) and 7.9 gms (3×) and 7.65 gms (2×), the “Meas (von Frey response)” value ([4]; Morphine 10 mg/kg, Nicotine 0) was 1.1 gms (3×) and 0.45 gms and 2.15 gms and the “Meas (von Frey response)” value ([4]; Morphine 13 mg/kg, Nicotine 0) was 4.65 gms (2×) and 7.65 gms (3×). For the same compound, the “Meas (von Frey response)” value ([4]; Morphine 20 mg/kg, Nicotine 0) was 7.9 gms and 4.9 gms (3×) and 8.1 gms and the “reduction in peak effect (plateau of analgesic action)” value (tolerance to morphine; morphine 2 mg/kg/hr subcutaneous pump, nicotine 1 mg/kg IP or saline, heat withdrawal latency, 18 hour period) was 64±14%.
In the case of CN1CCCC1c1cccnc1 (stereo not drawn) [nicotine], the “incidence of nausea and vomiting compared with placebo” value [5] is reported as “did not differ”, the “Meas (von Frey response)” value ([4]; Morphine 0, Nicotine 0.5 (mg)) is reported as 0 gms (4×) and 0.25 gms and the “Meas (von Frey response)” value ([4]; Morphine 0, Nicotine 1 (mg)) is reported as 1.95 gms (2×) and 2.7 gms (3×). For the same compound, the “Meas (von Frey response)” value ([4]; Morphine 0, Nicotine 1.5 (mg)) was 2.7 gms (2×) and 4.9 gms (2×) and 4.65 gms, the “Meas (von Frey response)” value ([4]; Morphine 0, Nicotine 2 (mg)) was 2.7 gms (3×) and 4.9 gms (2×) and the “Meas (von Frey response)” value ([4]; Morphine 0, Nicotine 3 (mg), upper threshold 15) was 15 gms. The “Meas (von Frey response)” value ([4]; Morphine 0, Nicotine 5 (mg), upper threshold 15) was 15 gms, the “ED20 for primary hyperalgesia” value ([4]; single IP injection) was 1.5 mg/kg and the “morphine used during the first 24 hours after surgery” value ([6]; nicotine nasal spray 3 mg, difference vs placebo not statistically significant) was 41 ± 9 mg. The “cumulative morphine utilization during the first hour” value ([6]; nicotine nasal spray 3 mg, mean (SD), P<0.05 vs control) was 6 (5) mg, the “overall morphine usage compared to the placebo group” value ([6]; nicotine nasal spray 3 mg, p<0.01) was “about half” and the “reduction in morphine requirement in the first hour” value ([6]; nicotine vs placebo) was 50%. The “levels of TNF-α, IL2 and IL6 compared with placebo group (expected)” value (TNF-α, IL2 and IL6) was “lower levels”, the “peak pain scores (VAS, out of 10)” value (postoperative pain; 20 non-smoking women after gynecological surgery, reduced from 8 (placebo)) was 5 and the “time at which peak pain score occurred” value (postoperative pain; after surgery, nicotine nasal spray 3 mg, PCA morphine) was 35 min. For the same compound, the “peak pain score (numerical analog score 0-10)” value (postoperative pain; nicotine nasal spray 3 mg at end of surgery, PCA morphine available, first hour, mean (SD)) was 5.3 (1.6) units, the “pain score twenty-four hours after emergence” value (postoperative pain; nicotine nasal spray 3 mg single dose, PCA morphine, mean (SD), P<0.01 vs placebo) was 1.5 (0.5) and the “pain scores during the first hour compared with placebo” value (postoperative pain; nicotine nasal spray just prior to emergence, P<0.001) was “lower pain scores at all times during the first hour”. For the same compound, the “average VAS score in the first hour” value (postoperative pain; preliminary data set, placebo 6.5) was “approximately 4.5”, the “duration of analgesic effect” value (postoperative pain; single 3 mg intranasal dose, last assessment in the study) was “at least 24 hours” and the “benefit from pre-operative administration (expected)” value (post-incisional pain; 2 hours prior to hind-paw surgery) was “no benefit”. For the same compound, the “analgesic response with constant infusion (expected)” value (post-incisional pain; micro-osmotic pump vs bolus injection) was “more stable level of analgesic response”, the “average increase in systolic blood pressure” value [7] was 7 mM of mercury and the “change in diastolic blood pressure” value [7] was “no change”. The “change in heart rate” value [7] was “no change”, the arterial peak concentration [8, 10] was 100 µM and the “steady state venous concentration” value [8, 10] was 30 µM. The “time to peak effect” value ([8]; intranasal) was “five”, the “time until effect is dissipated” value ([8]; intranasal) was “about one” and the “systolic blood pressure compared with placebo” value ([9]; first hour after surgery) was “lower systolic blood pressure”. For the same compound, the “diastolic blood pressure compared with placebo” value ([9]; first postoperative hour) was “no difference”, the “heart rate compared with placebo” value ([9]; first postoperative hour) was “no difference” and the systolic blood pressure ([9]; first postoperative hour, mean (SD), placebo 122 (3), P<0.001) was 105 (3). For the same compound, the “hemodynamic consequences of a single dose of nicotine” value ([9]; pilot study) was “No hemodynamic consequences have been identified”, the “peak withdrawal latency compared with saline group” value (tolerance to morphine; morphine infusion 2 mg/kg/hr, data not shown) was “higher” and the “tolerance to morphine after pretreatment with a single dose of nicotine” value (tolerance to morphine; nicotine 1.5 mg/kg, morphine continuous infusion 18 hours, P<0.001) was “Tolerance is reduced”.
